Assay results as given in ChEMBL document CHEMBL3867422, “Design and synthesis of pyrimidinyl acyl thioureas as novel Hsp90 inhibitors in invasive ductal breast cancer and its bone metastasis” (Eur J Med Chem, 2016).

Experiments:
[1] = target: Heat shock protein HSP 90-alpha (Homo sapiens) (UniProt P07900); experiment: Inhibition of human His-tagged Hsp90 alpha N-terminal domain ATPase activity expressed in Escherichia coli BL21(DE3) at 6.25 uM assessed as ADP formation by pyruvate kinase/lactate dehydrogenase-coupled assay
[2] = target: Heat shock protein HSP 90-alpha (Homo sapiens) (UniProt P07900); experiment: Inhibition of human His-tagged Hsp90 alpha N-terminal domain ATPase activity expressed in Escherichia coli BL21(DE3) at 25 uM assessed as ADP formation by pyruvate kinase/lactate dehydrogenase-coupled assay
[3] = target: Heat shock protein HSP 90-alpha (Homo sapiens) (UniProt P07900); experiment: Inhibition of human His-tagged Hsp90 alpha N-terminal domain ATPase activity expressed in Escherichia coli BL21(DE3) at 12.5 uM assessed as ADP formation by pyruvate kinase/lactate dehydrogenase-coupled assay
[4] = target: Heat shock protein HSP 90-alpha (Homo sapiens) (UniProt P07900); experiment: Inhibition of human His-tagged Hsp90 alpha N-terminal domain ATPase activity expressed in Escherichia coli BL21(DE3) at 3.125 uM assessed as ADP formation by pyruvate kinase/lactate dehydrogenase-coupled assay
[5] = target: Heat shock protein HSP 90-alpha (Homo sapiens) (UniProt P07900); experiment: Inhibition of human His-tagged Hsp90 alpha N-terminal domain ATPase activity expressed in Escherichia coli BL21(DE3) at 50 uM assessed as ADP formation by pyruvate kinase/lactate dehydrogenase-coupled assay
[6] = target: Heat shock protein HSP 90-alpha (Homo sapiens) (UniProt P07900); experiment: Inhibition of human His-tagged Hsp90 alpha N-terminal domain ATPase activity expressed in Escherichia coli BL21(DE3) at 100 uM assessed as ADP formation by pyruvate kinase/lactate dehydrogenase-coupled assay

| Activity [1] [nmol/min/mg] | Activity [2] [nmol/min/mg] | Activity [3] [nmol/min/mg] | Activity [4] [nmol/min/mg] | Activity [5] [nmol/min/mg] | Activity [6] [nmol/min/mg] | SMILES |
| --- | --- | --- | --- | --- | --- | --- |
| 80 | 61.2 | 75.1 | 90.2 | 50.2 | 35.9 | CCn1cc(C(=O)NC(=S)NCc2ccccc2)c(-c2ccccc2)nc1=O |
| 85.7 | 50.1 | 70.9 | 93.5 | 38 | 28.9 | CCn1cc(C(=O)NC(=S)Nc2ccccc2C)c(-c2ccccc2)nc1=O |
| 70.3 | 40.4 | 60.8 | 85.3 | 32 | 26.1 | CCn1cc(C(=O)NC(=S)Nc2ccccc2)c(-c2ccccc2)nc1=O |
| 83.5 | 70.4 | 74.1 | 88.8 | 61 | 49.8 | CCn1cc(C(=O)NC(=S)Nc2ccc(Cl)cc2)c(-c2ccccc2)nc1=O |
| 49.5 | 24.4 | 36.1 | 75.5 | 13.2 | 8.19 | CCn1cc(C(=O)NC(=S)Nc2cccc3ccccc23)c(-c2ccccc2)nc1=O |

The next lines start with the compound.

| SMILES | Activity [1] [nmol/min/mg] | Activity [2] [nmol/min/mg] | Activity [3] [nmol/min/mg] | Activity [4] [nmol/min/mg] | Activity [5] [nmol/min/mg] | Activity [6] [nmol/min/mg] |
| --- | --- | --- | --- | --- | --- | --- |
| CCn1cc(C(=O)NC(=S)Nc2ccc(OC)cc2)c(-c2ccccc2)nc1=O | 59.4 | 28.5 | 37.7 | 81.1 | 16.2 | 11.4 |
| CCn1cc(C(=O)NC(=S)Nc2ccc(F)cc2)c(-c2ccccc2)nc1=O | 84.1 | 53.1 | 72 | 92.6 | 38.2 | 27.6 |
| CCn1cc(C(=O)NC(=S)Nc2ccc(Br)cc2)c(-c2ccccc2)nc1=O | 63.6 | 26.6 | 39.7 | 80.1 | 16.4 | 13.5 |
| CCn1cc(C(=O)NC(=S)Nc2ccc(C)cc2)c(-c2ccccc2)nc1=O | 80.5 | 55 | 72.9 | 90.2 | 43.4 | 33.1 |
| CCn1cc(C(=O)NC(=S)Nc2ccc(C(N)=O)cc2)c(-c2ccccc2)nc1=O | 87.1 | 64 | 73.4 | 93.5 | 51.1 | 37.5 |
